Measurements from article PMC6057649, “Development of NanoLuc-PEST expressing Leishmania mexicana as a new drug discovery tool for axenic- and intramacrophage-based assays” (PLoS Neglected Tropical Diseases, 2018).

Tested on: NanoLuc-PEST expressing L. mexicana axenic amastigotes
Experiment: microbe, parasite or virus in culture
Type: cell-based
Details: for Relative Bioluminescence (%): 72 hours, relative to DMSO only control, n = 4

CO[C@@H](C(=O)N1Cc2[nH]nc(NC(=O)c3ccc(N4CCN(C)CC4)cc3)c2C1)c1ccccc1 [MMV676600]
Relative Bioluminescence (%) (2 µM compound): 110.66%
Relative Bioluminescence (%) (10 µM compound): 114.36%

CNC(=O)c1nn(C)c2c1C(C)(C)Cc1cnc(Nc3ccc(N4CCN(C)CC4)cc3)nc1-2 [MMV676602]
Relative Bioluminescence (%) (2 µM compound): 91.95%
Relative Bioluminescence (%) (10 µM compound): 77.62%

C[C@H]1COC2(CCN(c3nc(=O)c4cc(C(F)(F)F)cc([N+](=O)[O-])c4s3)CC2)O1 [MMV676603]
Relative Bioluminescence (%) (2 µM compound): 83.14%
Relative Bioluminescence (%) (10 µM compound): 75.26%

Cc1ncc(-c2ccnc(Nc3ccc(S(C)(=O)=O)cc3)n2)n1C(C)C [MMV676604]
Relative Bioluminescence (%) (2 µM compound): 81.35%
Relative Bioluminescence (%) (10 µM compound): 33.57%

CC1(O)CC(c2nc(-c3ccc4ccc(-c5ccccc5)nc4c3)c3c(N)nccn23)C1 (stereo not shown) [MMV676605]
Relative Bioluminescence (%) (2 µM compound): 81.06%
Relative Bioluminescence (%) (10 µM compound): 84.63%

O=C(c1ccc(NCCO)cc1)C1C[C@H]1c1ccc(Cl)cc1 (stereo partly shown) [MMV676877]
Relative Bioluminescence (%) (2 µM compound): 100.77%
Relative Bioluminescence (%) (10 µM compound): 116.30%

CCn1cnc2c(Nc3cc(F)cc(F)c3)nc(C#N)nc21 [MMV676881]
Relative Bioluminescence (%) (2 µM compound): 76.51%
Relative Bioluminescence (%) (10 µM compound): 54.00%

NC(=O)c1cc(-c2ccsc2)ccc1OCCOc1ccccc1 [MMV687138]
Relative Bioluminescence (%) (2 µM compound): 56.61%
Relative Bioluminescence (%) (10 µM compound): 48.25%

CCCCS(=O)(=O)Nc1ccc2cnn(C)c2c1 [MMV687145]
Relative Bioluminescence (%) (2 µM compound): 132.61%
Relative Bioluminescence (%) (10 µM compound): 130.77%

Cc1cc(C)c2cc(C(=O)NC3CCCCCCC3)[nH]c2c1 [MMV687146]
Relative Bioluminescence (%) (2 µM compound): 98.04%
Relative Bioluminescence (%) (10 µM compound): 84.77%

COc1ccc(Cn2cnc3c(-c4ccco4)nc(Cl)nc32)cc1 [MMV687170]
Relative Bioluminescence (%) (2 µM compound): 107.56%
Relative Bioluminescence (%) (10 µM compound): 104.36%

O=C(C1CCN(c2cc(-n3cccc3)ncn2)CC1)N1CCc2ccccc2C1 [MMV687172]
Relative Bioluminescence (%) (2 µM compound): 73.27%
Relative Bioluminescence (%) (10 µM compound): 54.36%

CCc1ccc([C@@H]2C[C@H](C(F)(F)F)n3ncc(C(=O)NCc4ccc(OC)cc4)c3N2)cc1 [MMV687180]
Relative Bioluminescence (%) (2 µM compound): 49.23%
Relative Bioluminescence (%) (10 µM compound): 1.44%

COc1ccc2nc(C)cc(OCC(=O)Nc3ccccc3OC)c2c1 [MMV687188]
Relative Bioluminescence (%) (2 µM compound): 75.17%
Relative Bioluminescence (%) (10 µM compound): 98.10%

COc1ccc2nc(C)cc(OCC(=O)NCc3ccccc3)c2c1 [MMV687189]
Relative Bioluminescence (%) (2 µM compound): 92.36%
Relative Bioluminescence (%) (10 µM compound): 81.16%

CC(C)(C(=O)Nc1ccc(F)cc1)n1cc(-c2ccccc2F)cn1 [MMV687239]
Relative Bioluminescence (%) (2 µM compound): 106.04%
Relative Bioluminescence (%) (10 µM compound): 118.80%

NC(=O)c1cc(Br)ccc1OCCOc1ccccc1 [MMV687243]
Relative Bioluminescence (%) (2 µM compound): 65.34%
Relative Bioluminescence (%) (10 µM compound): 78.50%

CN1CCN(S(=O)(=O)c2ccc(-c3ccc4c(Nc5ccc6n[nH]nc6c5)ccnc4c3)cc2)CC1 [MMV687246]
Relative Bioluminescence (%) (2 µM compound): 103.95%
Relative Bioluminescence (%) (10 µM compound): 82.04%

Nc1nc2cc(-c3cncc(Oc4ccc(F)cc4)c3)ccc2[nH]1 [MMV687248]
Relative Bioluminescence (%) (2 µM compound): 81.54%
Relative Bioluminescence (%) (10 µM compound): 88.99%

Cn1c(=O)c2c(S(C)(=O)=O)snc2n(C)c1=O [MMV687251]
Relative Bioluminescence (%) (2 µM compound): -4.37%
Relative Bioluminescence (%) (10 µM compound): -0.24%
EC50 (hit compounds from the axenic amastigote screen, S3 Table, read-out: EC50, Axenic Amastigotes): 480 nM

CCCCc1ccc(C(=O)Nc2nccc3ccccc23)nc1 [MMV687254]
Relative Bioluminescence (%) (2 µM compound): 63.72%
Relative Bioluminescence (%) (10 µM compound): -0.07%

CC(C)=CCC/C(C)=C\CNCCNC1C2CC3CC(C2)CC1C3 (stereo not shown) [MMV687273]
Relative Bioluminescence (%) (2 µM compound): 68.48%
Relative Bioluminescence (%) (10 µM compound): 81.32%

CCc1nc2ccc(Cl)cn2c1C(=O)NCc1ccc(N2CCC(c3ccc(OC(F)(F)F)cc3)CC2)cc1 [MMV687696]
Relative Bioluminescence (%) (2 µM compound): 113.56%
Relative Bioluminescence (%) (10 µM compound): 57.87%

O=C(NCc1cc(Cl)cc(Cl)c1)c1c(C(F)(F)F)nc2ccccn12 [MMV687699]
Relative Bioluminescence (%) (2 µM compound): 81.42%
Relative Bioluminescence (%) (10 µM compound): 62.05%

Nc1ncnc2c1ncn2[C@@H]1O[C@H](COS(=O)(=O)NC(=O)c2ccccc2O)[C@@H](O)[C@H]1O [MMV687700]
Relative Bioluminescence (%) (2 µM compound): 67.55%
Relative Bioluminescence (%) (10 µM compound): 61.64%

COc1cccc(-c2nc3c(N4CCCC4)cccc3n2CC2CCCN2)n1 (stereo not shown) [MMV687703]
Relative Bioluminescence (%) (2 µM compound): 48.25%
Relative Bioluminescence (%) (10 µM compound): 76.96%

c1ccc(Oc2ccc(-c3cc(N4CCNCC4)[nH]n3)cc2)cc1 [MMV687706]
Relative Bioluminescence (%) (2 µM compound): 85.99%
Relative Bioluminescence (%) (10 µM compound): 75.35%

O=C1O[C@@H](CO)CN1c1cc(F)c(C2=CCN(Cc3ccccc3)CC2)c(F)c1 [MMV687729]
Relative Bioluminescence (%) (2 µM compound): 76.47%
Relative Bioluminescence (%) (10 µM compound): 62.67%

CCCCOC(=O)Nc1cc2[nH]c(C3CCCCC3)nc2cc1N1CCCC1 [MMV687730]
Relative Bioluminescence (%) (2 µM compound): 85.81%
Relative Bioluminescence (%) (10 µM compound): 52.52%

Cc1cc(OCC(=O)NCc2ccccc2)c2cc(Br)ccc2n1 [MMV687747]
Relative Bioluminescence (%) (2 µM compound): 76.47%
Relative Bioluminescence (%) (10 µM compound): 30.38%

c1ccc(C[C@@H]2CN(c3nccc(Oc4ccc(-n5ccnc5)cc4)n3)CCN2)cc1 [MMV687749]
Relative Bioluminescence (%) (2 µM compound): 66.01%
Relative Bioluminescence (%) (10 µM compound): 56.67%

c1ccc(Oc2ccc(-c3cc(C4CCOCC4)[nH]n3)cc2)cc1 [MMV687762]
Relative Bioluminescence (%) (2 µM compound): 41.49%
Relative Bioluminescence (%) (10 µM compound): 31.40%

Cc1cnc(N2CCN[C@@H](Cc3ccccc3)C2)nc1Oc1ccc(-n2ccnc2)cc1 [MMV687765]
Relative Bioluminescence (%) (2 µM compound): 69.43%
Relative Bioluminescence (%) (10 µM compound): 74.28%

CC1(C)OB(O)c2ccc(C3=NOC(c4cc(Cl)c(F)c(Cl)c4)(C(F)(F)F)C3)cc21 (stereo not shown) [MMV687775]
Relative Bioluminescence (%) (2 µM compound): 54.77%
Relative Bioluminescence (%) (10 µM compound): 7.40%

Cc1cc(C2=NOC(c3cc(Cl)c(F)c(Cl)c3)(C(F)(F)F)C2)ccc1C(=O)NCc1ccc2c(c1)C(C)(C)OB2O (stereo not shown) [MMV687776]
Relative Bioluminescence (%) (2 µM compound): 57.43%
Relative Bioluminescence (%) (10 µM compound): -1.15%

CC1(C)Cc2c(c(N3CCOCC3)nc3snc(Br)c23)CO1 [MMV687794]
Relative Bioluminescence (%) (2 µM compound): 97.30%
Relative Bioluminescence (%) (10 µM compound): 72.05%
